This passage reports MIC results from ChEMBL document CHEMBL3608226, “Synthesis and biological evaluation of phaitanthrin congeners as anti-mycobacterial agents” (2015).

For orientation: MIC means the lowest concentration found to suppress growth.

This assay deals with Mycobacterium tuberculosis. In words: Antimycobacterial activity against multi-drug resistant Mycobacterium tuberculosis. Type of assay: functional.

Molecules are shown by their SMILES. Converted amounts (≈) assume the structure as drawn.

As to `O=C1c2ccccc2-n2c1nc1ccccc1c2=O` [TRYPTANTHRIN], the MIC came to 0.5 µg/mL (≈ 2.01 µM).

`NNC(=O)c1ccncc1` [ISONIAZID] had an MIC of 4 µg/mL (≈ 29.2 µM). This MIC lies about 8-fold higher than the previous one.
